Columns and labels:
Type in all cases: cell-based
HER2 S310F [1] = target: T1, HER2 S310F (Homo sapiens, UniProt P04626, S310F); assay: Activity for inhibiting HER2 (Table B), HER2 S310F; details: read-out: HER2 S310F, potency code (IC50)
T1 construct: expressed in transfected cells; host or cells: BaF3 (murine pro-B)
Procedure: (§1) EC50 values were determined with the same application.

HER2 S310F [2] = target: T1, HER2 S310F; assay: BaF3 cell proliferation assay, HER2 S310F (Table B); details: potency code, 3 days, CellTiterGlo, read-out: HER2 S310F (Activity for Inhibiting HER2)
HER2 WT [3] = target: T2, HER2 WT (Homo sapiens, UniProt P04626); assay: BaF3 cell proliferation assay, HER2 WT (Table B); details: potency code, 3 days, CellTiterGlo, read-out: HER2 WT (Activity for Inhibiting HER2)
EGFR V3 [4] = target: T3, EGFR V3 (Homo sapiens, UniProt P00533, DELINS30-297G); assay: BaF3 cell proliferation assay, EGFR V3 (Table A); details: potency code, 3 days, CellTiterGlo, read-out: EGFR V3 (Activity for Inhibiting EGFR)
T3 construct: expressed in transfected cells; host or cells: BaF3 (murine pro-B), retroviral pMXs-IRES-Blasticidin
How it was run: (§2)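 EC50s reflect growth of IL-3-independent BaF3 lines whose proliferation depends on the introduced human receptor variant. Lines were produced by retroviral infection and one week of 10 μg/ml Blasticidin selection.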

EGFR V3 [5] = target: T3, EGFR V3; assay: Activity for inhibiting EGFR (Table A), EGFR V3 (EGFR-Viii); details: read-out: EGFR V3, potency code (IC50)
EGFR WT [6] = target: T4, EGFR WT (Homo sapiens, UniProt P00533); assay: Activity for inhibiting EGFR (Table A), EGFR WT; details: read-out: EGFR WT, potency code (IC50)
HER2 WT [7] = target: T2, HER2 WT; assay: Activity for inhibiting HER2 (Table B), HER2 WT
EGFR WT [8] = target: T4, EGFR WT; assay: BaF3 cell proliferation assay, EGFR WT (Table A); details: potency code, 3 days, CellTiterGlo, read-out: EGFR WT (Activity for Inhibiting EGFR)
How it was run: as §2

HER2 YVMA [9] = target: T5, HER2 YVMA (Homo sapiens, UniProt P04626, INS775YVMA); assay: BaF3 cell proliferation assay, HER2 YVMA (Table B); details: potency code, 3 days, CellTiterGlo, read-out: HER2 YVMA (Activity for Inhibiting HER2)
T5 construct: expressed in transfected cells; host or cells: BaF3 (murine pro-B)

HER2 YVMA [10] = target: T5, HER2 YVMA; assay: Activity for inhibiting HER2 (Table B), HER2 YVMA; details: read-out: HER2 YVMA, potency code (IC50)
Procedure: as §1

[11] = Table B, read-out: HER2 WT, potency code (IC50)
[12] = text lists of compounds, read-out: IC50 value for inhibiting wild-type HER2

T2 sequence (P04626 23-1255): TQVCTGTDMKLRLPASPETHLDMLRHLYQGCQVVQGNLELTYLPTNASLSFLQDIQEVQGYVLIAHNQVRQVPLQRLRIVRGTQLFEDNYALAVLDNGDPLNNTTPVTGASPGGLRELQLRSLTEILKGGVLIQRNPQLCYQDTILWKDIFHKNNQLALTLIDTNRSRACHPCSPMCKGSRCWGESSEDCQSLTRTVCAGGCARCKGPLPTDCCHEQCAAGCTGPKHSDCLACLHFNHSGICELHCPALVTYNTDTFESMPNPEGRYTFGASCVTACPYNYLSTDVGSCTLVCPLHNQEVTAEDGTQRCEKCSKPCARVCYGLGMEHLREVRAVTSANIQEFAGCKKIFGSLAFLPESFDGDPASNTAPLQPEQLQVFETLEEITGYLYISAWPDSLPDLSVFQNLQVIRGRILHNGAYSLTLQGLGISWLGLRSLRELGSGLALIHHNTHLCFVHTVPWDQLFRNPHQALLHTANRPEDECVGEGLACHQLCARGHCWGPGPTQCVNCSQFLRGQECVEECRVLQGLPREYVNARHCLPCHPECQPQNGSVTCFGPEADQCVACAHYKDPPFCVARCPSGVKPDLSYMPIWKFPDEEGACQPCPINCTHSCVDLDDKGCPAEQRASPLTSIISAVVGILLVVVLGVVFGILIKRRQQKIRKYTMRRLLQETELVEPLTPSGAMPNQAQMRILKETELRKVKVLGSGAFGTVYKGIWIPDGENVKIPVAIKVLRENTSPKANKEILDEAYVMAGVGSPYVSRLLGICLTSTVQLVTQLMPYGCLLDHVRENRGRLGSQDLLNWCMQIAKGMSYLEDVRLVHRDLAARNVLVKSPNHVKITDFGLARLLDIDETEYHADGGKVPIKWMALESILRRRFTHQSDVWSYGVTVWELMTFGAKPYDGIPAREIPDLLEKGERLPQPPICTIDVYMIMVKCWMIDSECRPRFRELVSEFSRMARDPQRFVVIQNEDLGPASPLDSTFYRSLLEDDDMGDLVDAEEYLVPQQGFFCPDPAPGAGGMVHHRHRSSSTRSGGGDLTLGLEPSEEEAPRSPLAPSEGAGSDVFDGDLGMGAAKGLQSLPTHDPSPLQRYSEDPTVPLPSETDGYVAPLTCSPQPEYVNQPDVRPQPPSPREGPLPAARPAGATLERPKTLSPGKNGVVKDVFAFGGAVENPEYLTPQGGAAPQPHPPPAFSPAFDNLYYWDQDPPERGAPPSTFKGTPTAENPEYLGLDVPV
T4 sequence (P00533 25-1210 N540K): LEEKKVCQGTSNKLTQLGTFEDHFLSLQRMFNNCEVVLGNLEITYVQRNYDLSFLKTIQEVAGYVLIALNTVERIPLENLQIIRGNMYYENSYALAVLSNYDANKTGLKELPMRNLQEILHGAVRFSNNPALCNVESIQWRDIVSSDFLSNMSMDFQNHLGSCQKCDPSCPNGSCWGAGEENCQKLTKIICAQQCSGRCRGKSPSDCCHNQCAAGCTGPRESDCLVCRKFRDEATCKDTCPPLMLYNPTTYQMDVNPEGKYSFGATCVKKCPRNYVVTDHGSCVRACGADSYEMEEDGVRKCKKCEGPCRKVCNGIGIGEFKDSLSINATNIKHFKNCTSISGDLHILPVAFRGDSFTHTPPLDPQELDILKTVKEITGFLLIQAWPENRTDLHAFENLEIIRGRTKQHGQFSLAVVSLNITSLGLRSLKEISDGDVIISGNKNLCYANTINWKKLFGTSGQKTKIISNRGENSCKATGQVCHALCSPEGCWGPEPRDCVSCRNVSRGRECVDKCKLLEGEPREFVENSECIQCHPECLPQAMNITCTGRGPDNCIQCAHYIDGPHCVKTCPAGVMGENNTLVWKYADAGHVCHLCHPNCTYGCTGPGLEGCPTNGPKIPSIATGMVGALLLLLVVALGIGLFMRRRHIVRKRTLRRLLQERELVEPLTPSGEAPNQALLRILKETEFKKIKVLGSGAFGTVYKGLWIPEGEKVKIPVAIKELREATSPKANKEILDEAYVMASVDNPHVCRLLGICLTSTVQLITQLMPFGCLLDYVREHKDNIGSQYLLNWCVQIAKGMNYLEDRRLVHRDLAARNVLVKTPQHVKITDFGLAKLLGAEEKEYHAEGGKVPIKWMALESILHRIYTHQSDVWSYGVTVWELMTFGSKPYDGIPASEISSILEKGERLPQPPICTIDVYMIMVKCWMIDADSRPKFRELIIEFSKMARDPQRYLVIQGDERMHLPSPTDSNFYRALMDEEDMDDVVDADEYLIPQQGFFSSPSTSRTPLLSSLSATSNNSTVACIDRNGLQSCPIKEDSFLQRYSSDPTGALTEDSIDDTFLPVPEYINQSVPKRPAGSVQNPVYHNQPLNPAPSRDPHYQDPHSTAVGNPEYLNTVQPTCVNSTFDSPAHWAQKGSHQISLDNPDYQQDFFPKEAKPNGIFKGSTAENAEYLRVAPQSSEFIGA
T3 sequence (P00533 with tags, fused parts or gaps DELINS30-297G): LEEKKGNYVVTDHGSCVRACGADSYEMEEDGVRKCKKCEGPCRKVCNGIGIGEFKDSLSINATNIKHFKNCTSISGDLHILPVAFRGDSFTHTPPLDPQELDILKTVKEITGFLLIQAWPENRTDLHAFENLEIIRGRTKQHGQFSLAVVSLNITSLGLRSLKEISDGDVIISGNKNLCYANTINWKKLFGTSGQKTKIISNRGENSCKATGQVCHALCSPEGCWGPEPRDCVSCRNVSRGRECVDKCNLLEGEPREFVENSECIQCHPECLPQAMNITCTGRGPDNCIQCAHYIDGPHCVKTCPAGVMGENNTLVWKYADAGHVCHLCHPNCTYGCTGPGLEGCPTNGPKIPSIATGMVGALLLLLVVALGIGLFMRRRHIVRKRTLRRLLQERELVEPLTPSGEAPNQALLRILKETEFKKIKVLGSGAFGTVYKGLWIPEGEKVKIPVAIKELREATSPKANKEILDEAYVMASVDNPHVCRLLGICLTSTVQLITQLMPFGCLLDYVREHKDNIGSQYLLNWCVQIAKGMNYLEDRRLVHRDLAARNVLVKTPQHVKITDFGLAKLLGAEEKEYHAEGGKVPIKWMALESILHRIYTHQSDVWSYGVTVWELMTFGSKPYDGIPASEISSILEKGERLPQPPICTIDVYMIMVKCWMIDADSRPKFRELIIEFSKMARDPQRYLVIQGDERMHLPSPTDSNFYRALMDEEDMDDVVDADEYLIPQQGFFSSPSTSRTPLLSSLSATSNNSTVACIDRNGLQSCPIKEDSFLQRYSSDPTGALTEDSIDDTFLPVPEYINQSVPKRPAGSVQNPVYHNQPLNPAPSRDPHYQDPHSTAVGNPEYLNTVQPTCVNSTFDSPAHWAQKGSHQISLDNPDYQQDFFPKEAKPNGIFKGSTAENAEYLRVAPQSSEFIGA
T1 sequence (P04626 23-1255 S310F): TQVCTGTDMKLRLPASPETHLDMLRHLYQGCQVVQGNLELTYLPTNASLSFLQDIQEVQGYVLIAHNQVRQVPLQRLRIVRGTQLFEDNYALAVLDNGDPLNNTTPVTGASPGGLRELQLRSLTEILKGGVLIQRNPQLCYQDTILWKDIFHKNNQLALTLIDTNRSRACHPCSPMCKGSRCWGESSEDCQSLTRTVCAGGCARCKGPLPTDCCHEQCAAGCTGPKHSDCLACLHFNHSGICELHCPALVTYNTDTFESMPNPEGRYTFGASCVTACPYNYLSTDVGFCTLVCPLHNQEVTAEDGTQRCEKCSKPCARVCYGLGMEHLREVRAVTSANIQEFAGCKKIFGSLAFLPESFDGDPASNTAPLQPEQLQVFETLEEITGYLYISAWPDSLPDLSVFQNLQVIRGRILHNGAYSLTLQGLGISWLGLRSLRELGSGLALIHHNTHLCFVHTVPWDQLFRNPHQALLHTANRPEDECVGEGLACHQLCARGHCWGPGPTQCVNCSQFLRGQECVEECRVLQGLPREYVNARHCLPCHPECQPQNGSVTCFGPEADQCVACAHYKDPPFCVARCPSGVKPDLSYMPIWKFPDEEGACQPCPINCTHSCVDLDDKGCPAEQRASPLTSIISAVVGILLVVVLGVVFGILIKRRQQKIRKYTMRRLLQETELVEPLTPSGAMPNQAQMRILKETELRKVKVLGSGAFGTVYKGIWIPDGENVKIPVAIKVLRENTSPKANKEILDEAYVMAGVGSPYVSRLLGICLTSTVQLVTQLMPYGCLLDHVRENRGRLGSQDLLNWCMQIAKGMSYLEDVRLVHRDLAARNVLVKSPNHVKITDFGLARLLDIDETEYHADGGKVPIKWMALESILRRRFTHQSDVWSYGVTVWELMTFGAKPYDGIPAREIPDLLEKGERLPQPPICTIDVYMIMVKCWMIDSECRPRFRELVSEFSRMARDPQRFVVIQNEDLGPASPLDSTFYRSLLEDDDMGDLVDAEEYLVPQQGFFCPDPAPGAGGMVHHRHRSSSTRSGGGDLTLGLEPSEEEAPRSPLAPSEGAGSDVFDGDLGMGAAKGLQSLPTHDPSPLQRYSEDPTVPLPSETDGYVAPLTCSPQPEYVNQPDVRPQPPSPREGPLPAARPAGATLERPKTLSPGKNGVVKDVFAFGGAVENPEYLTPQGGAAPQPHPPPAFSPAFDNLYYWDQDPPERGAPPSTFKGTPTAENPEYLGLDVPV

| Compound | IC50 (HER2 S310F [1]) | IC50 (HER2 S310F [2]) | IC50 (HER2 WT [3]) | IC50 (EGFR V3 [4]) | IC50 (EGFR V3 [5]) | IC50 (EGFR WT [6]) | IC50 (HER2 WT [7]; [11]) | IC50 (EGFR WT [8]) | IC50 (HER2 WT [7]; [12]) | IC50 (HER2 YVMA [9]) | IC50 (HER2 YVMA [10]) |
| --- | --- | --- | --- | --- | --- | --- | --- | --- | --- | --- | --- |
| C=CC(=O)Nc1cc2c(Nc3ccc(OCc4cccc(F)c4)c(Cl)c3)ncnc2cc1N(C)CCN(C)C [compound 1] | 500 to 1000 nM | 500 to 1000 nM | 50 to 100 nM | 100 to 200 nM | 100 to 200 nM | > 1000 nM | 50 to 100 nM | > 1000 nM | – | – | – |
| C=CC(=O)Nc1cc2c(Nc3ccc(OCc4cccc(F)c4)c(Cl)c3)ncnc2cc1N(C)CCN1CCOCC1 [compound 2] | 300 to 500 nM | 300 to 500 nM | 100 to 200 nM | 50 to 100 nM | 50 to 100 nM | > 1000 nM | 100 to 200 nM | > 1000 nM | – | – | – |
| C=CC(=O)Nc1cc2c(Nc3ccc(OCc4cccc(F)c4)c(Cl)c3)ncnc2cc1OCCCN1CCOCC1 [compound 3] | 20 to 30 nM | 20 to 30 nM | 10 to 20 nM | 30 to 50 nM | 30 to 50 nM | 300 to 500 nM | 10 to 20 nM | 300 to 500 nM | ≤ 20 nM | – | – |
| CC#CC(=O)Nc1cc2c(Nc3ccc(OCc4ccccn4)c(Cl)c3)ncnc2cc1N(C)CCN1CCOCC1 [compound 4] | 50 to 100 nM | 50 to 100 nM | 20 to 30 nM | 50 to 100 nM | 50 to 100 nM | 200 to 300 nM | 20 to 30 nM | 200 to 300 nM | ≤ 50 nM | – | – |
| C=CC(=O)Nc1cc2c(Nc3ccc(OCc4ccccn4)c(Cl)c3)ncnc2cc1N(C)CCN1CCOCC1 [compound 7] | 200 to 300 nM | 200 to 300 nM | 100 to 200 nM | 100 to 200 nM | 100 to 200 nM | > 1000 nM | 100 to 200 nM | > 1000 nM | – | – | – |
| C=CC(=O)Nc1cc2c(Nc3ccc(OCc4ccccn4)cc3)ncnc2cc1OCCn1ccnc1 [compound 9] | 100 to 200 nM | 100 to 200 nM | 10 to 20 nM | 50 to 100 nM | 50 to 100 nM | 500 to 1000 nM | 10 to 20 nM | 500 to 1000 nM | ≤ 20 nM | – | – |
| C=CC(=O)Nc1cc2c(Nc3ccc(OCc4ccccn4)c(Cl)c3)ncnc2cc1N(C)CCCN1CCOCC1 [compound 12] | 100 to 200 nM | 100 to 200 nM | 50 to 100 nM | 100 to 200 nM | 100 to 200 nM | 500 to 1000 nM | 50 to 100 nM | 500 to 1000 nM | – | – | – |
| C=CC(=O)Nc1cc2c(Nc3ccc(OCc4ccccn4)cc3)ncnc2cc1OCCN1CC2CN(C)CC2C1 (stereo not shown) [compound 81] | 100 to 200 nM | 100 to 200 nM | – | 100 to 200 nM | 100 to 200 nM | 200 to 300 nM | – | 200 to 300 nM | ≤ 50 nM | > 1000 nM | > 1000 nM |
| CC#CC(=O)Nc1cc2c(Nc3ccc(OCc4cccnn4)c(Cl)c3)ncnc2cc1OCCCN1CCOCC1 [compound 165, N-(4-((3-chloro-4-(pyridazin-3-ylmethoxy)phenyl)amino)-7-(3-morpholinopropoxy)quinazolin-6-yl)but-2-ynamide] | 10 to 20 nM | 10 to 20 nM | – | 30 to 50 nM | 30 to 50 nM | 100 to 200 nM | – | 100 to 200 nM | – | 50 to 100 nM | 50 to 100 nM |
| C=CC(=O)Nc1cc2c(Nc3ccc(OCc4ncccn4)c(Cl)c3)ncnc2cc1OCCCN1CCOCC1 [compound 166] | 30 to 50 nM | 30 to 50 nM | – | 30 to 50 nM | 30 to 50 nM | > 1000 nM | – | > 1000 nM | – | 100 to 200 nM | 100 to 200 nM |

The next lines start with the values.

| IC50 (HER2 S310F [1]) | IC50 (HER2 S310F [2]) | IC50 (HER2 WT [3]) | IC50 (EGFR V3 [4]) | IC50 (EGFR V3 [5]) | IC50 (EGFR WT [6]) | IC50 (HER2 WT [7]; [11]) | IC50 (EGFR WT [8]) | IC50 (HER2 WT [7]; [12]) | IC50 (HER2 YVMA [9]) | IC50 (HER2 YVMA [10]) | Compound |
| --- | --- | --- | --- | --- | --- | --- | --- | --- | --- | --- | --- |
| 10 to 20 nM | 10 to 20 nM | – | 30 to 50 nM | 30 to 50 nM | > 1000 nM | – | > 1000 nM | – | 50 to 100 nM | 50 to 100 nM | C=CC(=O)Nc1cc2c(Nc3ccc(OCc4cccnn4)c(Cl)c3)ncnc2cc1OCCCN1CCOCC1 [compound 167] |
| 20 to 30 nM | 20 to 30 nM | – | 30 to 50 nM | 30 to 50 nM | 200 to 300 nM | – | 200 to 300 nM | – | 50 to 100 nM | 50 to 100 nM | CC#CC(=O)Nc1cc2c(Nc3ccc(OCc4ncccn4)c(Cl)c3)ncnc2cc1OCCCN1CCOCC1 [compound 168, N-(4-((3-chloro-4-(pyrimidin-2-ylmethoxy)phenyl)amino)-7-(3-morpholinopropoxy)quinazolin-6-yl)but-2-ynamide] |
| 10 to 20 nM | 10 to 20 nM | – | 30 to 50 nM | 30 to 50 nM | > 1000 nM | – | > 1000 nM | – | 30 to 50 nM | 30 to 50 nM | C=CC(=O)Nc1cc2c(Nc3ccc(OCc4cnccn4)c(Cl)c3)ncnc2cc1OCCCN1CCOCC1 [compound 169] |
| 5 to 10 nM | 5 to 10 nM | – | 30 to 50 nM | 30 to 50 nM | 200 to 300 nM | – | 200 to 300 nM | – | 10 to 20 nM | 10 to 20 nM | CC#CC(=O)Nc1cc2c(Nc3ccc(OCc4cnccn4)c(Cl)c3)ncnc2cc1OCCCN1CCOCC1 [compound 170, N-(4-((3-chloro-4-(pyrazin-2-ylmethoxy)phenyl)amino)-7-(3-morpholinopropoxy)quinazolin-6-yl)but-2-ynamide] |
| 50 to 100 nM | 50 to 100 nM | – | 50 to 100 nM | 50 to 100 nM | > 1000 nM | – | > 1000 nM | – | 300 to 500 nM | 300 to 500 nM | C=CC(=O)Nc1cc2c(Nc3ccc(OCc4cccnn4)c(Cl)c3)ncnc2cc1OCCN1CCOCC1 [compound 171] |
| 50 to 100 nM | 50 to 100 nM | – | 100 to 200 nM | 100 to 200 nM | 500 to 1000 nM | – | 500 to 1000 nM | – | 300 to 500 nM | 300 to 500 nM | C=CC(=O)Nc1cc2c(Nc3ccc(OCc4cccnn4)c(Cl)c3)ncnc2cc1OCCN1CCN(C)CC1 [compound 172] |
| 30 to 50 nM | 30 to 50 nM | – | 50 to 100 nM | 50 to 100 nM | > 1000 nM | – | > 1000 nM | – | 200 to 300 nM | 200 to 300 nM | C=CC(=O)Nc1cc2c(Nc3ccc(OCc4cccnn4)c(Cl)c3)ncnc2cc1OCCN1CC2CCC(C1)O2 [compound 173] |
| 50 to 100 nM | 50 to 100 nM | – | 50 to 100 nM | 50 to 100 nM | > 1000 nM | – | > 1000 nM | – | 300 to 500 nM | 300 to 500 nM | C=CC(=O)Nc1cc2c(Nc3ccc(OCc4cccnn4)c(Cl)c3)ncnc2cc1OCCN1CC(OC)C1 [compound 174] |
| 20 to 30 nM | 20 to 30 nM | – | 30 to 50 nM | 30 to 50 nM | > 1000 nM | – | > 1000 nM | – | 100 to 200 nM | 100 to 200 nM | C=CC(=O)Nc1cc2c(Nc3ccc(OCc4cnccn4)c(Cl)c3)ncnc2cc1OCCN1CC2CCC(C1)O2 [compound 175] |
| 20 to 30 nM | 20 to 30 nM | – | 30 to 50 nM | 30 to 50 nM | > 1000 nM | – | > 1000 nM | – | 100 to 200 nM | 100 to 200 nM | C=CC(=O)Nc1cc2c(Nc3ccc(OCc4cnccn4)c(Cl)c3)ncnc2cc1OCCN1CCOCC1 [compound 176] |
| 10 to 20 nM | 10 to 20 nM | – | 30 to 50 nM | 30 to 50 nM | 500 to 1000 nM | – | 500 to 1000 nM | – | 50 to 100 nM | 50 to 100 nM | C=CC(=O)Nc1cc2c(Nc3ccc(OCc4cccnn4)c(Cl)c3)ncnc2cc1OCCCN1CC(OC)C1 [compound 177] |
| 30 to 50 nM | 30 to 50 nM | – | 30 to 50 nM | 30 to 50 nM | > 1000 nM | – | > 1000 nM | – | 100 to 200 nM | 100 to 200 nM | C=CC(=O)Nc1cc2c(Nc3ccc(OCc4cnccn4)c(Cl)c3)ncnc2cc1OCCN1CC(OC)C1 [compound 178] |
| 10 to 20 nM | 10 to 20 nM | – | 30 to 50 nM | 30 to 50 nM | 500 to 1000 nM | – | 500 to 1000 nM | – | 30 to 50 nM | 30 to 50 nM | C=CC(=O)Nc1cc2c(Nc3ccc(OCc4cnccn4)c(Cl)c3)ncnc2cc1OCCCN1CC(OC)C1 [compound 179] |
| 20 to 30 nM | 20 to 30 nM | – | 30 to 50 nM | 30 to 50 nM | 500 to 1000 nM | – | 500 to 1000 nM | – | 100 to 200 nM | 100 to 200 nM | C=CC(=O)Nc1cc2c(Nc3ccc(OCc4cnccn4)c(Cl)c3)ncnc2cc1OCCN1CCN(C)CC1 [compound 180] |
